Tests used:
[1] = target: T1, thromboxane A2 receptor (TP) (Homo sapiens, UniProt P21731); experiment: Human Thromboxane A2 Receptor Binding Assay; conditions: human platelets; 10 nM [3H]SQ29548; 1 hour, room temperature
T1 construct: using human platelets as the source of the receptor; from tissue; host or cells: human platelets (whole platelets, 5x10^7 per well)
T1 sequence (P21731 1-343): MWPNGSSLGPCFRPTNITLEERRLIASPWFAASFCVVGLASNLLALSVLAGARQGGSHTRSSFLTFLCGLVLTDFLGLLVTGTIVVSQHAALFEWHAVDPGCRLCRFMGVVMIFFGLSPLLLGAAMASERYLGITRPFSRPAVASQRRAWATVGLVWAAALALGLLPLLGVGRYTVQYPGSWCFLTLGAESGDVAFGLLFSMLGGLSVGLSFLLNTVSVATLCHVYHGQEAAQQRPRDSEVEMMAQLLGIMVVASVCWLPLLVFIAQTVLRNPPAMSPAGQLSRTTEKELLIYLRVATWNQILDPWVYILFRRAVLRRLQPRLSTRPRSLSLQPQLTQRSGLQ
Source text: The thromboxane A2 receptor (TP) plays a key role in hemostasis as its abnormality leads to bleeding disorders. To avoid the potential liability of bleeding disorders, the binding activity of certain compounds of the present invention against TP was monitored by a receptor binding assay using human platelets as the source of the receptor and [^3H]SQ29548 (generically named (5Z)-[5,6-^3H]-7-[(1S,2R,3R,4R)-3-[[2-[(phenylamino)carbonyl]hydrazinyl]methyl]-7-oxabicyclo[2.2.1]hept-2-yl]-5-heptenoic acid, from PerkinElmer Inc.) as the competing radioactive ligand.
The TP binding reactions (0.2 mL) were performed in 96-well plates at room temperature in PBS containing 5×10^7 platelets, 10 mM MgCl2, 0.06% BSA, 10 nM [^3H]SQ29548, and the test compound at various concentrations. […] The radioactivities bound to the platelets were determined using a microplate scintillation counter (TopCount® NXT, from PerkinElmer Inc.) after adding 50 μL of Microscint™ 20 scintillation fluid (from PerkinElmer Inc.) to each well of the filter plates. The radioactivity from non-specific binding was determined by replacing the compound with 10 μM of ramatroban (BAY-u3405, from Cayman Chemical Company) in the reaction mixtures. The radioactivity bound to the platelets in the absence of compound (total binding) was determined by replacing the compound with 0.25% of DMSO in the reaction mixture. […]

human CRTH2 = target: T2, human CRTH2 (Homo sapiens, UniProt Q9Y5Y4); experiment: Human CRTH2 Receptor Binding Assay (whole cell, [3H]ramatroban competition); parameters: two mammalian expression vectors that harbored human CRTH2 and G-alpha16 cDNAs; expressed in transfected cells; conditions: CHO-K1 cells expressing human CRTH2 and G-alpha16; 20 nM [3H]ramatroban; 1 hour, room temperature
T2 sequence (Q9Y5Y4 1-395): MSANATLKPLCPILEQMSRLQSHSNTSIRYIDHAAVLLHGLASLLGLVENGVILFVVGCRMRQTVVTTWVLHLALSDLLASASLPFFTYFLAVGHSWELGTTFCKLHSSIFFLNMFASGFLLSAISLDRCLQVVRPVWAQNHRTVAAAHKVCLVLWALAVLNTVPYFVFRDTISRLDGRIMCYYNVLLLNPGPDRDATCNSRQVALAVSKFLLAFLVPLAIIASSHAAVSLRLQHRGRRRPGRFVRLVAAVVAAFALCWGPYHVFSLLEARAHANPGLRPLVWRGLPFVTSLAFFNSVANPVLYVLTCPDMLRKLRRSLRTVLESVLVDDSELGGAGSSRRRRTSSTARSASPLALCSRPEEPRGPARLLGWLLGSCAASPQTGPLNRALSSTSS
Procedure, shortened: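 CHO-K1 cells stably co-expressing human CRTH2 and G-alpha16 (1.5×10^5/reaction) incubated 1 h at room temperature with 20 nM [3H]ramatroban in PBS, 10 mM MgCl2, 0.06% BSA. Non-specific binding defined with 10 μM 15(R)-15-methyl PGD2; IC50 from 7-point inhibition of specific binding, 4-parameter logistic fit.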

For `O=C(O)COc1cccc2c1CCCCC2NS(=O)(=O)c1cc(C(F)(F)F)cc(C(F)(F)F)c1` (single isomer, unassigned) [Example 46, [5-(3,5-Bis-trifluoromethyl-benzenesulfonylamino)-6,7,8,9-tetrahydro-5H-benzocyclohepten-1-yloxy]-acetic acid], the IC50 [1] was 3.61 µM and the IC50 (human CRTH2) was 0.0245 µM.

`O=C(O)COc1cccc2c1CCCCC2NS(=O)(=O)c1cc(C(F)(F)F)cc(C(F)(F)F)c1` (stereo not shown) [Example 1, [5-(3,5-Bis-trifluoromethyl-benzenesulfonylamino)-6,7,8,9-tetrahydro-5H-benzocyclohepten-1-yloxy]-acetic acid] showed an IC50 [1] of 0.642 µM and an IC50 (human CRTH2) of 0.0089 µM.

Reference: patent US20120309796A1, “BENZOCYCLOHEPTENE ACETIC ACIDS” (priority 2011, published 2012)
